Counter-ions that a name gives are not always drawn.
What was measured:
[1] = test system: VSVg pseudotyped virus; experiment: organism not typed; format: cell-based; details: read-out: Activity (EC50 in μM vs. pseudotyped virus) VSVg
[2] = test system: Lassa GP-pseudotyped-virus; experiment: microbe, parasite or virus in culture; format: cell-based, Lassa fever virus; details: Human immunodeficiency virus 1, read-out: Activity (EC50 in μM vs. pseudotyped virus) Lassa
[3] = test system: Machupo pseudotyped virus; experiment: organism not typed; format: cell-based; details: read-out: Activity (EC50 in μM vs. pseudotyped virus) Machupo
[4] = test system: Junín pseudotyped virus; experiment: organism not typed; format: cell-based; details: read-out: Activity (EC50 in μM vs. pseudotyped virus) Junín

Compound | EC50 [1] [µM] | EC50 [2] [µM] | EC50 [3] [µM] | EC50 [4] [µM]
CC(C)Oc1ccc(-n2cnc3cc(/C=C\c4ccc(C5(O)CCCC5)cc4)ccc32)cc1 [Compound 56, 1-[4-[(Z)-2-[1-(4-isopropoxyphenyl)benzimidazol-5-yl]vinyl]phenyl]cyclopentanol] | 1 to 10 | < 1 | < 1 | 
CC(C)(C)Oc1ccc(-n2cnc3cc(/C=C/c4ccc(C(C)(C)C)cc4)ccc32)cc1 [Compound 16, 1-(4-tert-butoxyphenyl)-5-[(E)-2-(4-tert-butylphenyl)vinyl]benzimidazole] | 10 to 50 | 1 to 10 |  | 
CCOc1ccc(-n2cnc3cc(/C=C\c4ccc(C(F)(F)F)cc4)ccc32)cc1 [Compound 13] | 10 to 50 | < 1 | < 1 | < 1
CC(C)Oc1ccc(-n2cnc3cc(/C=C\c4ccc(C5(O)CCOCC5)cc4)ccc32)cc1 [Compound 59, 4-[4-[(Z)-2-[1-(4-isopropoxyphenyl)benzimidazol-5-yl]vinyl]phenyl]tetrahydropyran-4-ol] | 1 to 10 | < 1 | < 1 | < 1
CC(C)Oc1ccc(-n2cnc3cc(/C=C\c4ccc(CCC=O)cc4)ccc32)cc1 [Compound 44, 3-[4-[(Z)-2-[1-(4-isopropoxyphenyl)benzimidazol-5-yl]vinyl]phenyl]propanal] | 10 to 50 | < 1 |  | 
CCOc1ccc(-n2cnc3cc(/C=C/c4ccc(C(C)(C)C)cc4)ccc32)nc1 [Compound 20, 5-[(E)-2-(4-tert-butylphenyl)vinyl]-1-(5-ethoxy-2-pyridyl)benzimidazole hydrochloride] | 1 to 10 | < 1 |  | 
CC(C)Oc1ccc(-n2cnc3cc(/C=C/c4ccc(C(C)(C)C)cc4)ccc32)cc1 [Compound 6, 5-[(E)-2-(4-tert-butylphenyl)vinyl]-1-(4-isopropoxyphenyl)-benzimidazole] | 10 to 50 | < 1 |  | 
CC(C)Oc1ccc(-n2cnc3cc(/C=C\c4ccc(C5(O)CCCCC5)cc4)ccc32)cc1 [Compound 57, 1-[4-[(Z)-2-[1-(4-isopropoxyphenyl)benzimidazol-5-yl]vinyl]phenyl]cyclohexanol] | 1 to 10 | < 1 | < 1 | 
CCCCC(O)(CCCC)c1ccc(/C=C\c2ccc3c(c2)ncn3-c2ccc(OC(C)C)cc2)cc1 [Compound 41, 5-[4-[(Z)-2-[1-(4-isopropoxyphenyl)benzimidazol-5-yl]vinyl]phenyl]nonan-5-ol] | 10 to 50 | < 1 | < 1 | 
CCOc1ccc(-n2cnc3cc(OCc4ccc(CC)cc4)ccc32)cc1 [Compound 29, 1-(4-ethoxyphenyl)-5-[(4-ethylphenyl)-methoxy]benzimidazole] | 10 to 50 | < 1 | < 1 | < 1
COc1ccc(-n2cnc3cc(/C=C/c4ccc(C(C)C)cc4)cnc32)cc1 [Compound 25, 6-[(E)-2-(4-isopropylphenyl)vinyl]-3-(4-methoxyphenyl)imidazo[4,5-b]pyridine] | > 50 | 1 to 10 |  | 
CC(C)Oc1ccc(-n2cnc3cc(/C=C\c4ccc(C5(O)CC5)cc4)ccc32)cc1 [Compound 48, 1-[4-[(Z)-2-[1-(4-isopropoxyphenyl)benzimidazol-5-yl]vinyl]phenyl]cyclopropanol] | 10 to 50 | < 1 | < 1 | < 1
CC(C)Oc1ccc(-n2cnc3cc(/C=C\c4ccc(C(O)(C(F)(F)F)C(F)(F)F)cc4)ccc32)cc1 [Compound 47, 1,1,1,3,3,3-hexafluoro-2-[4-[(Z)-2-[1-(4-isopropoxyphenyl)benzimidazol-5-yl]vinyl]phenyl]propan-2-ol] | 1 to 10 | < 1 | < 1 | 
CCOc1ccc(-n2cnc3cc(CCc4ccc(CC)cc4)cnc32)cc1 [Compound 28, 3-(4-ethoxyphenyl)-6-[2-(4-ethylphenyl)-ethyl]imidazo[4,5-b]pyridine] | > 50 | < 1 | < 1 | < 1
CCOc1ccc(-n2cnc3cc(/C=C\c4ccc(OC(F)(F)F)cc4)ccc32)cc1 [Compound 11, 1-(4-ethoxyphenyl)-5-[(Z)-2-[4-(trifluoromethoxy)phenyl]vinyl]benzimidazole] | 10 to 50 | < 1 | < 1 | < 1
COC(=O)c1ccc(/C=C\c2ccc3c(c2)ncn3-c2ccc(OC(C)C)cc2)cc1 [Compound 37, methyl 4-[(Z)-2-[1-(4-isopropoxyphenyl)-benzimidazol-5-yl]vinyl]benzoate] | 10 to 50 | < 1 | < 1 | < 1
CC(C)Oc1ccc(-n2cnc3cc(/C=C\c4ccc(C(C)(C)F)cc4)ccc32)cc1 [Compound 39, 5-[(Z)-2-[4-(1-fluoro-1-methyl-ethyl)phenyl]vinyl]-1-(4-isopropoxy-phenyl)benzimidazole] | 1 to 10 | < 1 | < 1 | < 1

Compound | EC50 [1] [µM] | EC50 [2] [µM] | EC50 [3] [µM] | EC50 [4] [µM]
CC(C)Oc1ccc(-n2cnc3cc(C4CC4c4ccc(C(C)(C)C)cc4)ccc32)cc1 (centres unmarked) [Compound 36, 5-[2-(4-tert-butylphenyl)cyclopropyl]-1-(4-isopropoxyphenyl)-benzimidazole] | 10 to 50 | < 1 | < 1 | < 1
CC(C)Oc1ccc(-n2cnc3cc(/C=C\c4ccc(C5(N)CC5)cc4)ccc32)cc1 [Compound 54, 1-[4-[(Z)-2-[1-(4-isopropoxyphenyl)benzimidazol-5-yl]vinyl]phenyl]cyclopropanamine] | 10 to 50 | < 1 | < 1 | < 1
CCOc1ccc(-n2cnc3cc(/C=C/c4ccc(CC)cc4)cnc32)cc1 [Compound 23, 3-(4-ethoxyphenyl)-6-[(E)-2-(4-ethylphenyl)vinyl]imidazo[4,5-b]pyridine] | > 50 | 1 to 10 |  | 
COc1ccc(-n2cnc3cc(/C=C/c4ccc(C(C)C)cc4)ccc32)cc1 [Compound 3, 5-[(E)-2-(4-isopropylphenyl)vinyl]-1-(4-methoxyphenyl)benzimidazole] | 10 to 50 | 1 to 10 |  | 
CC(C)Oc1ccc(-n2cnc3cc(/C=C\c4ccc(C#N)cc4)ccc32)cc1 [Compound 49, 4-[(Z)-2-[1-(4-isopropoxyphenyl)benzimidazol-5-yl]vinyl]benzonitrile] | 10 to 50 | < 1 |  | 
CCOc1ccc(-n2cnc3ccc(CCc4ccc(CC)cc4)cc32)cc1 [Compound 35, 1-(4-ethoxyphenyl)-6-[2-(4-ethylphenyl)-ethyl]benzimidazole] | 10 to 50 | < 1 | < 1 | 
CCc1ccc(/C=C/c2ccc3c(c2)ncn3-c2ccc(OC(C)(C)C)cc2)cc1 [Compound 14, 1-(4-tert-butoxyphenyl)-5-[(E)-2-(4-ethylphenyl)-vinyl]benzimidazole] | 10 to 50 | 1 to 10 |  | 
CCOc1ccc(-n2ccc3cc(NCc4ccc(CC)cc4)cnc32)cc1 [Compound 66, 1-(4-ethoxyphenyl)-N-[(4-ethylphenyl)-methyl]pyrrolo[2,3-b]pyridin-5-amine] | > 50 | < 1 | 1 to 10 | 
CCOc1ccc(-n2ccc3cc(NCc4ccc(CC)cc4)ccc32)cc1 [Compound 63, 1-(4-ethoxyphenyl)-N-[(4-ethylphenyl)-methyl]indol-5-amine] | 10 to 50 | < 1 | < 1 | 
CC(C)Oc1ccc(-n2cnc3cc(/C=C\c4ccc(C(C)(O)C(=O)O)cc4)ccc32)cc1 (centres unmarked) [Compound 55, 2-hydroxy-2-[4-[(Z)-2-[1-(4-isopropoxyphenyl)benzimidazol-5-yl]vinyl]phenyl]propanoic acid] | > 50 | < 1 |  | 
CC(C)Oc1ccc(-n2cnc3cc(/C=C\c4ccc(C(C)(C)O)cc4)ccc32)nc1 [Compound 42, 2-[4-[(Z)-2-[1-(5-isopropoxy-2-pyridyl)benzimidazol-5-yl]vinyl]phenyl]propan-2-ol] | 1 to 10 | < 1 | < 1 | 
CCOc1ccc(-n2cnc3cc(/C=C/c4ccc(CC)cc4)ccc32)nc1 [Compound 18, 1-(5-ethoxy-2-pyridyl)-5-[(E)-2-(4-ethylphenyl)vinyl]benzimidazole hydrochloride] | 10 to 50 | < 1 |  | 1 to 10
CC(C)Oc1ccc(-n2cnc3cc(/C=C\c4ccc(C(C)(C)C(F)(F)F)cc4)ccc32)cc1 [Compound 43, 1-(4-isopropoxyphenyl)-5-[(Z)-2-[4-(2,2,2-trifluoro-1,1-dimethyl-ethyl)phenyl]vinyl]benzimidazole] | 1 to 10 | < 1 | < 1 | 
CC(C)Oc1ccc(-n2cnc3cc(/C=C\c4ccc(C(C)(O)C(F)(F)F)cc4)ccc32)cc1 (centres unmarked) [Compound 46, 1,1,1-trifluoro-2-[4-[(Z)-2-[1-(4-isopropoxyphenyl)benzimidazol-5-yl]vinyl]phenyl]propan-2-ol] | 1 to 10 | < 1 | < 1 | 
CCOc1ccc(-n2cnc3cc(/C=C/c4ccc(C(C)(C)C)cc4)ccc32)cc1 [Compound 4, 5-[(E)-2-(4-tert-butylphenyl)vinyl]-1-(4-ethoxyphenyl)-benzimidazole] | 10 to 50 | < 1 |  | 
CCOc1ccc(Cn2cnc3cc(NCc4ccc(CC)cc4)cnc32)cc1 [Compound 62, 3-[(4-ethoxyphenyl)methyl]-N-[(4-ethylphenyl)-methyl]imidazo[4,5-b]pyridin-6-amine] | 1 to 10 | 1 to 10 | 1 to 10 | 
CCOc1ccc(-n2cnc3cc(/C=C/c4ccc(CC)cc4)ccc32)cc1 [Compound 1, 1-(4-ethoxyphenyl)-5-[(E)-2-(4-ethylphenyl)vinyl]benzimidazole] | 10 to 50 | < 1 | < 1 | 
